Test results published in patent US20240246908A1 (ORION CORPORATION, priority 2021, published 2024).

Tested on: YAP-TEAD
Assay: TEAD inhibition, Hippo Pathway TEAD Reporter MCF-7 luciferase assay
Assay type: cell-based
Conditions: Homo sapiens, MCF7, 24 h, Hippo Pathway TEAD Reporter MCF-7 cells, luciferase activity after 24 h; read-out: IC50 of the test compounds on YAP-TEAD inhibition (Group)
Method in brief: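 MCF-7 cells carrying a TEAD-responsive firefly luciferase reporter, with nuclear YAP1 driving constitutive expression, were treated the day after plating with compounds (11 concentrations, 4 replicates; 0.1% DMSO control). After 24 h, luciferase was read by ONE-Glo luminescence and IC50 determined.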

SMILES | IC50
COc1ccc(Oc2ccc(C(F)(F)F)cc2)cc1NC(=O)C1CCC(=O)N1C(=O)C1CCC(=O)N1 (stereo not drawn) [Compound 229, N-(2-Methoxy-5-(4-(trifluoromethyl)phenoxy)phenyl)-5-oxo-1-(5-oxopyrrolidine-2-carbonyl)pyrrolidine-2-carboxamide] | < 0.05 µM
COc1ccc(Oc2ccc(C(F)(F)F)cc2)cc1NC(=O)C1CCC(=O)N1C(=O)C1CCC(=O)N1C (stereo not drawn) [Compound 230, N-(2-Methoxy-5-(4-(trifluoromethyl)phenoxy)phenyl)-1-(1-methyl-5-oxo-pyrrolidine-2-carbonyl)-5-oxopyrrolidine-2-carboxamide] | < 0.05 µM
COc1ccc(Oc2ccc(F)c(F)c2)cc1NC(=O)C1CCC(=O)N1C(=O)C1CC(=O)N1 (stereo not drawn) [Compound 232, N-(5-(3,4-difluorophenoxy)-2-methoxyphenyl)-5-oxo-1-(4-oxoazetidine-2-carbonyl)pyrrolidine-2-carboxamide] | 0.05 to 0.3 µM
CN1C(=O)CCC1C(=O)Nc1cc(Oc2cccc(C(F)(F)F)c2)cc2c1OCCO2 (stereo not drawn) [Compound 233, 1-Methyl-5-oxo-N-(7-(3-(trifluoromethyl)phenoxy)-2,3-dihydrobenzo[b][1,4]dioxin-5-yl)pyrrolidine-2-carboxamide] | 0.05 to 0.3 µM
CN1C(=O)CCC1C(=O)Nc1cc(Oc2ccc(C(F)(F)F)cc2)cc2c1OCC2 (stereo not drawn) [Compound 237, 1-Methyl-5-oxo-N-(5-(4-(trifluoromethyl)phenoxy)-2,3-dihydrobenzofuran-7-yl)pyrrolidine-2-carboxamide] | < 0.05 µM
CN1C(=O)CCC1C(=O)Nc1cc(OCc2cccc(C(F)(F)F)c2)cc2c1OCC2 (stereo not drawn) [Compound 238, 1-Methyl-5-oxo-N-(5-((3-(trifluoromethyl)benzyl)oxy)-2,3-dihydrobenzofuran-7-yl)pyrrolidine-2-carboxamide] | 0.05 to 0.3 µM
CN1C(=O)CCC1C(=O)Nc1cc(Oc2ccc(F)c(F)c2)cc2c1OCC2 (stereo not drawn) [Compound 239, N-(5-(3,4-Difluorophenoxy)-2,3-dihydrobenzofuran-7-yl)-1-methyl-5-oxopyrro-lidine-2-carboxamide] | < 0.05 µM
CN1C(=O)CCC1C(=O)Nc1cc(COc2ccc(F)c(F)c2)cc2c1OCC2 (stereo not drawn) [Compound 242, N-(5-((3,4-Difluorophenoxy)methyl)-2,3-dihydrobenzofuran-7-yl)-1-methyl-5-oxopyrrolidine-2-carboxamide] | 0.05 to 0.3 µM
CN1C(=O)CCC1C(=O)Nc1cc(COc2ccc(F)c(F)c2)cc2c1CCO2 (stereo not drawn) [Compound 243, N-(6-((3,4-Difluorophenoxy)methyl)-2,3-dihydrobenzofuran-4-yl)-1-methyl-5-oxopyrrolidine-2-carboxamide] | 0.301 to 2 µM
COc1ccc(CNc2cccc(F)c2)cc1NC(=O)C1CCC(=O)N1 (stereo not drawn) [Compound 246, N-(5-(((3-Fluorophenyl)amino)methyl)-2-methoxyphenyl)-5-oxopyrrolidine-2-carboxamide] | 0.301 to 2 µM
COc1ccc(OC2CCC(F)(F)CC2)cc1NC(=O)C1CCC(=O)N1C (stereo not drawn) [Compound 247, N-(5-((4,4-Difluorocyclohexyl)oxy)-2-methoxyphenyl)-1-methyl-5-oxopyrrolidine-2-carboxamide] | 0.05 to 0.3 µM
CN1C(=O)CCC1C(=O)Nc1cc(OCc2ccc(F)c(F)c2)cc2c1OCC2 (stereo not drawn) [Compound 248, N-(5-((3,4-Difluorobenzyl)oxy)-2,3-dihydrobenzofuran-7-yl)-1-methyl-5-oxopyrrolidine-2-carboxamide] | < 0.05 µM
CN1C(=O)CCC1C(=O)Nc1cc(COc2cccc(F)c2)cc2ccoc12 (stereo not drawn) [Compound 249, N-(5-((3-Fluorophenoxy)methyl)benzofuran-7-yl)-1-methyl-5-oxopyrrolidine-2-carboxamide] | 0.05 to 0.3 µM
COc1cc(Oc2ccc(F)c(F)c2)cc(NC(=O)C2CCC(=O)N2C)c1F (stereo not drawn) [Compound 251, N-(5-(3,4-difluorophenoxy)-2-fluoro-3-methoxyphenyl)-1-methyl-5-oxopyrro-lidine-2-carboxamide] | 0.301 to 2 µM
COc1ccc(Oc2ccc(C(F)(F)F)cc2)cc1NC(=O)C12CCC(=O)N1CCS2(=O)=O (stereo not drawn) [Compound 252, N-(2-Methoxy-5-(4-(trifluoromethyl)phenoxy)phenyl)-5-oxotetrahydropyrrolo[2,1-b]thiazole-7a(5H)-carboxamide 1,1-dioxide] | 0.301 to 2 µM
COc1ccc(/C=C/c2cccc(F)c2)cc1NC(=O)C1CCC(=O)N1C (stereo not drawn) [Compound 254, (E)-N-(5-(3-Fluorostyryl)-2-methoxyphenyl)-1-methyl-5-oxopyrrolidine-2-carboxamide] | 0.05 to 0.3 µM
COc1ccc(OC2CCC(C(F)(F)F)CC2)cc1NC(=O)C1CCC(=O)N1C (stereo not drawn) [Compound 255, N-(2-Methoxy-5-((4-(trifluoromethyl)cyclohexyl)oxy)phenyl)-1-methyl-5-oxo-pyrrolidine-2-carboxamide] | < 0.05 µM
COc1ccc(Cc2ccc(C(F)(F)F)cc2)cc1NC(=O)C1CCC(=O)N1C (stereo not drawn) [Compound 257, N-(2-Methoxy-5-(4-(trifluoromethyl)benzyl)phenyl)-1-methyl-5-oxopyrrolidine-2-carboxamide] | 0.05 to 0.3 µM
CN1C(=O)CCC1C(=O)Nc1cc(Oc2ccc(C(F)(F)F)cc2)ccc1Cl (stereo not drawn) [Compound 258, N-(2-Chloro-5-(4-(trifluoromethyl)phenoxy)phenyl)-1-methyl-5-oxopyrrolidine-2-carboxamide] | 0.05 to 0.3 µM
COc1ccc(NC(=O)C2CCC(=O)N2C)cc1Oc1ccc(C(F)(F)F)cc1 (stereo not drawn) [Compound 259, N-(4-Methoxy-3-(4-(trifluoromethyl)phenoxy)phenyl)-1-methyl-5-oxo-pyrrolidine-2-carboxamide] | 0.05 to 0.3 µM
COc1ccc(Oc2ccc(F)cc2)cc1NC(=O)C1CCC(=O)N1C (stereo not drawn) [Compound 260, N-(5-(4-Fluorophenoxy)-2-methoxyphenyl)-1-methyl-5-oxopyrrolidine-2-carboxamide] | 0.05 to 0.3 µM
COc1cc(NC(=O)C2CCC(=O)N2)cc(Oc2cccc(C(F)(F)F)c2)c1 (stereo not drawn) [Compound 261, N-(3-Methoxy-5-(3-(trifluoromethyl)phenoxy)phenyl)-5-oxopyrrolidine-2-carboxamide] | 0.05 to 0.3 µM
COc1ccc(O[C@H]2CCC[C@H](C(F)(F)F)C2)cc1NC(=O)C1CCC(=O)N1 (stereo partly drawn) [Compound 267, N-(2-Methoxy-5-(((1S,3S)-3-(trifluoromethyl)cyclohexyl)oxy)phenyl)-5-oxo-pyrrolidine-2-carboxamide] | 0.05 to 0.3 µM
COc1ccc(O[C@@H]2CCC[C@H](C(F)(F)F)C2)cc1NC(=O)[C@H]1CCC(=O)N1C [Compound 268, (R)—N-(2-Methoxy-5-(((1R,3S)-3-(trifluoromethyl)cyclohexyl)oxy)phenyl)-1-methyl-5-oxopyrrolidine-2-carboxamide] | 0.05 to 0.3 µM

The next lines start with the values.

IC50 | SMILES
< 0.05 µM | COc1ccc(Oc2ccc(C(F)(F)F)cc2)cc1NC(=O)C1CCC(=O)N1C(=O)C1CC(=O)N1 (stereo not drawn) [Compound 231, N-(2-Methoxy-5-(4-(trifluoromethyl)phenoxy)phenyl)-5-oxo-1-(4-oxoazetidine-2-carbonyl)pyrrolidine-2-carboxamide]
0.301 to 2 µM | Cc1c(Oc2cccc(C(F)(F)F)c2)cc(NC(=O)C2CCC(=O)N2C)c2c1OCCO2 (stereo not drawn) [Compound 236, 1-Methyl-N-(8-methyl-7-(3-(trifluoromethyl)phenoxy)-2,3-dihydrobenzo[b]-[1,4]dioxin-5-yl)-5-oxopyrrolidine-2-carboxamide]
< 0.05 µM | CN1C(=O)CCC1C(=O)Nc1cc(Oc2ccc(F)c(F)c2)cc2c1OCCO2 (stereo not drawn) [Compound 240, N-(7-(3,4-Difluorophenoxy)-2,3-dihydrobenzo[b][1,4]dioxin-5-yl)-1-methyl-5-oxopyrrolidine-2-carboxamide]
0.05 to 0.3 µM | CN1C(=O)CCC1C(=O)Nc1cc(Oc2ccc(F)cc2)cc2c1OCCO2 (stereo not drawn) [Compound 241, N-(7-(4-Fluorophenoxy)-2,3-dihydrobenzo[b][1,4]dioxin-5-yl)-1-methyl-5-oxo-pyrrolidine-2-carboxamide]
0.05 to 0.3 µM | CN1C(=O)CCC1C(=O)Nc1cc(Oc2ccc(C(F)(F)F)cn2)cc2c1ncn2C (stereo not drawn) [Compound 244, 1-Methyl-N-(1-methyl-6-((5-(trifluoromethyl)pyridin-2-yl)oxy)-1H-benzo-[d]imidazol-4-yl)-5-oxopyrrolidine-2-carboxamide]
< 0.05 µM | COc1cc(NC(=O)C2CCC(=O)N2)cc(Oc2ccc(C(F)(F)F)cc2)c1 (stereo not drawn) [Compound 253, N-(3-Methoxy-5-(4-(trifluoromethyl)phenoxy)phenyl)-5-oxopyrro-lidine-2-carboxamide]
0.05 to 0.3 µM | COc1ccc(Cc2cccc(C(F)(F)F)c2)cc1NC(=O)C1CCC(=O)N1C (stereo not drawn) [Compound 256, N-(2-Methoxy-5-(3-(trifluoromethyl)benzyl)phenyl)-1-methyl-5-oxopyrrolidine-2-carboxamide]
0.301 to 2 µM | COc1ccc(Oc2cnc(F)c(C)c2)cc1NC(=O)C1CCC(=O)N1 (stereo not drawn) [Compound 262, N-(5-((6-Fluoro-5-methylpyridin-3-yl)oxy)-2-methoxyphenyl)-5-oxopyrrolidine-2-carboxamide]
0.05 to 0.3 µM | COc1ccc(Oc2cnc(F)c(C)c2)cc1NC(=O)[C@H]1CCC(=O)N1C [Compound 263, (R)—N-(5-((6-fluoro-5-methylpyridin-3-yl)oxy)-2-methoxyphenyl)-1-methyl-5-oxopyrrolidine-2-carboxamide]
< 0.05 µM | COc1cc(NC(=O)C2CCC(=O)N2C)cc(OC2CCC(C(F)(F)F)CC2)c1 (stereo not drawn) [Compound 264]
< 0.05 µM | COc1ccc(OC2CCC(C(F)(F)F)CC2)cc1NC(=O)[C@H]1CCC(=O)N1C (stereo partly drawn) [Compound 265, (R)—N-(2-Methoxy-5-((4-(trifluoromethyl)cyclohexyl)oxy)phenyl)-1-methyl-5-oxopyrrolidine-2-carboxamide]
0.05 to 0.3 µM | COc1ccc(O[C@@H]2CCC[C@H](C(F)(F)F)C2)cc1NC(=O)C1CCC(=O)N1 (stereo partly drawn) [Compound 266, N-(2-Methoxy-5-(((1R,3S)-3-(trifluoromethyl)cyclohexyl)oxy)phenyl)-5-oxo-pyrrolidine-2-carboxamide]
